In patent US20230365592A1 (Agios Pharmaceuticals, Inc., priority 2022, published 2023) one finds AC50 data, which are given here for 49 compounds.

Each structure is given as a SMILES string. A value given as a limit tells only on which side of the number the result lay.

The target in the first assay is T1, human PAH with the R408W mutation (Homo sapiens, UniProt P00439, R408W).
T1 construct: expressed in transfected cells
T1 sequence (P00439 1-452 R408W): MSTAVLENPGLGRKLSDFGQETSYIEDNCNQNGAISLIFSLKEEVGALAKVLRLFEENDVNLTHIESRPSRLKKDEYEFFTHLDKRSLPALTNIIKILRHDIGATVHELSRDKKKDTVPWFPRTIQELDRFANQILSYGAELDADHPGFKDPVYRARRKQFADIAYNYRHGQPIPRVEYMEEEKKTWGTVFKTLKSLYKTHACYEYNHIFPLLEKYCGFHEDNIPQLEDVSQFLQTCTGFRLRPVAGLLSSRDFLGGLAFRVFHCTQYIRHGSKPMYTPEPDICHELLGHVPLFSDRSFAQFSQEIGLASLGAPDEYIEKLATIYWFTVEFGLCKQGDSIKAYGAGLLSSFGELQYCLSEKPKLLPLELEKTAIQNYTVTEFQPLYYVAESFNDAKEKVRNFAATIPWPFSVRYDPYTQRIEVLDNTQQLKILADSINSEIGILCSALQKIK
In words: Cell Based Phenylalanine Flux Assay.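 Also: after compound treatment, cells received sepiapterin plus isotope-labelled Phenylalanine for 4 hours, then labelled Tyrosine in the medium was quantified, 10-point 2-fold dilution series run in duplicate.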 The conditions noted are these: A375 cells expressing R408W PAH; 24 hrs with compound, then 20 µM sepiapterin and 800 µM 13C9,15N-Phenylalanine for 4 hours; 13C-Tyrosine by LC-MS; average where tested multiple times; read-out: AC50.
For orientation: AC50 means the concentration at which the activity in the assay is half-maximal. As to `FC(F)c1cccn2nc([C@H]3c4nc[nH]c4CCN3c3nc4ccccc4o3)cc12` (single isomer, unassigned), the AC50 is more than 5 µM.
Still for that read-out and setting: the figure for `COc1cccn2nc(C3c4nc[nH]c4CCN3C(=O)c3nnc(-c4ccn(C)n4)o3)cc12` (single isomer, unassigned) is more than 5 µM; for `FC(F)c1cccc2cc([C@H]3c4nc[nH]c4CCN3c3nnc(C4CCC4)o3)nn12` (single isomer, unassigned) it is more than 5 µM.
The same measure, in the same setting: next, `Fc1cccn2nc([C@H]3c4nc[nH]c4CCN3c3nnc(-c4cccnc4)o3)cc12` (single isomer, unassigned): more than 5 µM; `Cc1cccn2nc([C@H]3c4nc[nH]c4CCN3c3nnc(-c4cccnc4)o3)cc12` (single isomer, unassigned): more than 5 µM; `Cc1cccn2nc([C@H]3c4nc[nH]c4CCN3C(=O)c3nnc(N4CCOCC4)o3)cc12` (single isomer, unassigned): more than 5 µM.
Still for that read-out and setting: next, `O=C(c1ocnc1C1CC1)N1CCc2[nH]cnc2[C@@H]1c1cc2cccc(C(F)(F)F)n2n1` (single isomer, unassigned): more than 5 µM.
As for `N#Cc1ncoc1C(=O)N1CCc2[nH]cnc2[C@@H]1c1nn2ccccc2c1Br` (single isomer, unassigned), the AC50 was 1 to 5 µM.
The same measure, in the same setting: the figure for `O=C(c1cnco1)N1CCc2[nH]cnc2[C@@H]1c1cc2ccccn2n1` (single isomer, unassigned) is 1 to 5 µM.
The same measure, in the same setting: next, `Fc1ccc(-c2nnc(N3CCc4[nH]cnc4[C@@H]3c3cc4ccccn4n3)o2)nc1` (single isomer, unassigned): more than 5 µM; `Cn1cc(N2CCc3[nH]cnc3[C@H]2c2cc3ccccn3n2)cn1` (single isomer, unassigned): more than 5 µM.
Turning to `Cn1ccc(-c2ncc(C(=O)N3CCc4[nH]cnc4[C@H]3c3cc4ccccn4n3)o2)n1` (single isomer, unassigned), the AC50 was in the range of 1 to 5 µM.
Consider `CC1(c2nnc(-n3cnc4c3[C@@H](c3cc5ccccn5n3)NCC4)o2)CC1` (single isomer, unassigned), for which the AC50 lay in the range of 1 to 5 µM.
On to `O=C(c1nnc(-c2cc[nH]n2)o1)N1CCc2[nH]cnc2[C@H]1c1cc2ccccn2n1` (single isomer, unassigned), for which the AC50 is 1 to 5 µM.
Still for that read-out and setting: the figure for `Cc1cccn2nc([C@@H]3c4nc[nH]c4CCN3c3nnc(C4CC(F)(F)C4)o3)cc12` (single isomer, unassigned) is 1 to 5 µM; for `Cn1cc(-c2nnc(C(=O)N3CCc4[nH]cnc4C3c3nn4ccccc4c3Br)o2)cn1` (single isomer, unassigned) it is 1 to 5 µM.
Same read-out and setting: next, `O=C(c1nnc(-c2cn[nH]c2)o1)N1CCc2[nH]cnc2[C@H]1c1cc2c(F)cccn2n1` (single isomer, unassigned): 1 to 5 µM; `COc1cccn2nc([C@@H]3c4nc[nH]c4CCN3C(=O)c3nnc(-c4ccn(C)n4)o3)cc12` (single isomer, unassigned): 1 to 5 µM; `COc1cccn2nc([C@@H]3c4nc[nH]c4CCN3c3nnc(C)o3)cc12` (single isomer, unassigned): 1 to 5 µM.
Same read-out and setting: the figure for `Nc1cnc(N2CCc3[nH]cnc3[C@H]2c2cc3cccc(C(F)F)n3n2)nc1` (single isomer, unassigned) is more than 5 µM.
On to `Cc1nc(-c2ccccn2)oc1C(=O)N1CCc2[nH]cnc2[C@H]1c1cc2ccccn2n1` (single isomer, unassigned), for which the half-maximal activity concentration (AC50) is 1 to 5 µM.
As to `Cc1nc(C(C)(C)O)oc1C(=O)N1CCc2[nH]cnc2[C@H]1c1cc2ccccn2n1` (single isomer, unassigned), the AC50 lay in the range of 1 to 5 µM.
The same measure, in the same setting: next, `FC(F)(F)c1cccn2nc([C@@H]3c4nc[nH]c4CCN3c3nnc(-c4ncccn4)o3)cc12` (single isomer, unassigned): 1 to 5 µM; `O=C(c1nnc(-c2ncccn2)o1)N1CCc2[nH]cnc2[C@H]1c1cc2c(C3CC3)cccn2n1` (single isomer, unassigned): more than 5 µM.
Same read-out and setting: the figure for `Cc1cccn2nc([C@@H]3c4nc[nH]c4CCN3c3nnc(-c4ncccn4)o3)cc12` (single isomer, unassigned) is 1 to 5 µM.
Still for that read-out and setting: the figure for `O=C(c1cnc(-c2cnccn2)o1)N1CCc2[nH]cnc2C1c1cc2ccccn2n1` (single isomer, unassigned) is 1 to 5 µM; for `COc1cccn2nc([C@@H]3c4nc[nH]c4CCN3c3nnc(C4CC4)o3)cc12` (single isomer, unassigned) it is 1 to 5 µM; for `Cc1ncccc1-c1nnc(N2CCc3[nH]cnc3[C@H]2c2cc3c(C4CC4)cccn3n2)o1` (single isomer, unassigned) it is 1 to 5 µM.
In the case of `Fc1cccn2nc(C3c4nc[nH]c4CCN3c3nnc(-c4cccnc4)o3)cc12` (single isomer, unassigned), the AC50 is 1 to 5 µM.
Consider `N#Cc1ncoc1C(=O)N1CCc2[nH]cnc2[C@H]1c1nn2ccccc2c1Br` (single isomer, unassigned), for which the concentration at half-maximal activity (AC50) is 1 to 5 µM.
As to `Cn1ncc(C(=O)N2CCc3[nH]cnc3[C@H]2c2cc3ccccn3n2)c1C(F)F` (single isomer, unassigned), the half-maximal activity concentration (AC50) fell in the range of 1 to 5 µM.
Take `CN(C)CCc1ccc2c(C(=O)N3CCc4[nH]cnc4[C@H]3c3cc4ccccn4n3)cnn2c1` (single isomer, unassigned): the AC50 is more than 5 µM.
Same read-out and setting: the figure for `CN(C)Cc1ccc2c(C(=O)N3CCc4[nH]cnc4C3c3cc4ccccn4n3)cnn2c1` (single isomer, unassigned) is 1 to 5 µM; for `COC(=O)N1CC(C(=O)N2CCc3[nH]cnc3[C@H]2c2cc3ccccn3n2)C1` (single isomer, unassigned) it is more than 5 µM.
On the same count and under the same terms, the figure for `O=C(c1nnc(CCN2CC(F)C2)o1)N1CCc2[nH]cnc2C1c1cc2ccccn2n1` (stereo not shown) [2-[2-(3-fluoroazetidin-1-yl)ethyl]-5-(4-{pyrazolo[1,5-a]pyridin-2-yl}-1H,4H,5H,6H,7H-imidazo[4,5-c]pyridine-5-carbonyl)-1,3,4-oxadiazole] is more than 5 µM; for `O=C(C1CC1(F)F)N1CCc2[nH]cnc2C1c1cc2ccccn2n1` [4S enantiomer of 5-[(1S)-2,2-difluorocyclopropanecarbonyll-4] it is 1 to 5 µM.
As for `CC(O)c1nnc(C(=O)N2CCc3[nH]cnc3C2c2cc3ccccn3n2)o1` [4S enantiomer of (1R)-1-{5-[4-{pyrazolo[1,5-a]pyridin-2-yl}-], the concentration at half-maximal activity (AC50) lay within 1 to 5 µM.
Same read-out and setting: the figure for `Cc1nc(C(C)O)oc1C(=O)N1CCc2[nH]cnc2C1c1cc2ccccn2n1` [4S enantiomer of (1S)-1-14-methyl-5-[4-{pyrazolo[1,5-a]pyrid] is 1 to 5 µM.

The same assay, now with this note: A375 cells expressing human PAH R408W; 24 hrs compound incubation; 13C-Tyrosine by LC-MS; average where tested multiple times; read-out: AC50.
Consider `Fc1cccc(F)c1-c1nnc(N2CCc3[nH]cnc3[C@@H]2c2cc3ccccn3n2)o1` (single isomer, unassigned) [Example 1842], for which the AC50 is more than 5 µM.
The same measure, in the same setting: the figure for `CC(O)c1nc(Cl)c(C(=O)N2CCc3[nH]cnc3[C@H]2c2cc3ccccn3n2)o1` (single isomer, unassigned) [Example 2376] is 1 to 5 µM; for `CC(O)c1nc(Cl)c(C(=O)N2CCc3[nH]cnc3[C@H]2c2cc3ccccn3n2)o1` (single isomer, unassigned) [Example 2377] it is 1 to 5 µM.

The assay is the same for the next values; noted with them: A375 cells expressing human R408W PAH; 24 hrs compound incubation; 13C-Tyrosine by LC-MS; average where tested multiple times; read-out: AC50.
As to `Cn1ccc(-c2nnc(C(=O)N3CCc4[nH]cnc4[C@H]3c3cc4c(C(F)(F)F)cccn4n3)o2)n1` (single isomer, unassigned) [Example 836], the AC50 is less than 0.5 µM.
Same read-out and setting: the figure for `CC(O)c1nc(Br)c(C(=O)N2CCc3[nH]cnc3[C@H]2c2cc3ccccn3n2)o1` (single isomer, unassigned) [Example 996] is less than 0.5 µM; for `CC(O)c1nc(Br)c(C(=O)N2CCc3[nH]cnc3[C@H]2c2cc3ccccn3n2)o1` (single isomer, unassigned) [Example 997] it is less than 0.5 µM; for `O=C(c1cnn2ccccc12)N1CCc2[nH]cnc2[C@H]1c1cc2ccccn2n1` [Example 600, (S)-(4-(pyrazolo[1,5-a]pyridin-2-yl)-6,7-dihydro-1H-imidazo[4,5-c]pyridin-5(4H)-yl)(pyrazolo[1,5-a]pyridin-3-yl)methanone] it is 0.5 to 1 µM.
On the same count and under the same terms, the figure for `O=C(c1cnn2ccccc12)N1CCc2[nH]cnc2[C@@H]1c1cc2ccccn2n1` [Example 601, (R)-(4-(pyrazolo[1,5-a]pyridin-2-yl)-6,7-dihydro-1H-imidazo[4,5-c]pyridin-5(4H)-yl)(pyrazolo[1,5-a]pyridin-3-yl)methanone] is more than 5 µM; for `O=C(c1cncs1)N1CCc2[nH]cnc2[C@H]1c1cc2ccccn2n1` [Example 602, (S)-(4-(pyrazolo[1,5-a]pyridin-2-yl)-6,7-dihydro-1H-imidazo[4,5-c]pyridin-5(4H)-yl)(thiazol-5-yl)methanone] it is less than 0.5 µM; for `O=C(c1cncs1)N1CCc2[nH]cnc2[C@@H]1c1cc2ccccn2n1` [Example 603, (R)-(4-(pyrazolo[1,5-a]pyridin-2-yl)-6,7-dihydro-1H-imidazo[4,5-c]pyridin-5(4H)-yl)(thiazol-5-yl)methanone] it is 1 to 5 µM.
The same measure, in the same setting: the figure for `O=C(c1nnc(-c2ccccn2)o1)N1CCc2[nH]cnc2[C@@H]1c1cc2ccccn2n1` [Example 604, (R)-(4-(pyrazolo[1,5-a]pyridin-2-yl)-6,7-dihydro-1H-imidazo[4,5-c]pyridin-5(4H)-yl)(5-(pyridin-2-yl)-1,3,4-oxadiazol-2-yl)methanone] is more than 5 µM.
